“Also recorded” adds a separate entry of the source.
Tested on: neurons in the CA1 sector of the hippocampus
Test: Forebrain ischemia model, histological outcome in the CA1 sector of the hippocampus
Format: in vivo, mouse
Experimental: FIGS. 1A-1B show effects of nicotinamide mononucleotide administration. FIG. 1A: Fluoro-Jade B staining of the hippocampal formation of mouse brain subjected to 10 min forebrain ischemia and 5 days of recovery. The middle panels represent enlarged views of the CA1 sector, the CA2-3 border, and DG. Note the high number of degenerating, Fluoro-Jade B positive cells in the CA1 pyramidal cell layer. There are only a few cells stained in the CA3 region, and some cells are stained in the DG. […] Open bars represent average values.
In all groups male, 3 months old animals were used.
C57BL/6 male mice, weighing 20-25 g were used. Mice were fasted overnight with free access to water ad libitum. Animals were anesthetized with 3.5% isoflurane in 70% N2O and 30% O2 and the trachea were intubated with a 20-guage intravenous catheter. Anesthesia was maintained using 1.5% isoflurane in N2O:O2 (70:30) and the lungs were mechanically ventilated at a rate of 120 breaths per min and the tidal volume was adjusted to give normal physiological values of blood gases (34-38 mm Hg pCO2 and […] of pO2). The common carotid arteries was isolated via a neck incision and encircled with loose ligatures for later clamping. Rectal temperature was routinely monitored before, during and after ischemia. A subcutaneous needle thermistor was placed adjacent to the skull. The body and head temperature was maintained at 37.0±0.5° C. by a homeothermic-heating pad and heating lamp.
Two minutes before the common carotid arteries are clamped, the isoflurane concentration will be increased to 5%. […]
Every sixth […] section located between 1.7 and 2.6 mm posterior to bregma (0 mm, 180 mm, 360 mm, 540 mm, 720 mm, 900 mm; 6 sections), which comprises the dorsal hippocampus, was stained with IBA1 antiserum and cresyl violet and used for estimating the total microglial number with distinct morphology and neuronal numbers of normal and dying neurons in the different hippocampal regions. […] Parallel sections were immuno-stained with GFAP antibody and the number of distinct astrocytes were counted in the same hippocampal area. GFAP-immunoreactive cells were classified into three categories: normal, moderate, and intensely activated astrocytes, based on morphological characteristics as assessed by visual inspection (23).
Quantitative analysis is performed on a computer-assisted image analysis system consisting of a Nikon Eclipse 800 photomicroscope equipped with a computer-controlled motorized stage, and a computer running Stereolnvestigator program, a custom-designed morphology and stereology software (27). Cell numbers were quantified according to the optical fractionator method. […]
For quantification of uninjured cells within the CA1 sector of the hippocampus an unbiased stereological technique was used (27). […]

NC(=O)c1ccc[n+]([C@@H]2O[C@H](COP(=O)([O-])O)[C@@H](O)[C@H]2O)c1 [nicotinamide mononucleotide]
ischemic cell death / brain damage in the CA1 sector of the hippocampus (10 min forebrain ischemia, NMN 500 mg/kg at 1 hour of reperfusion, 5 days of recovery): almost completely ameliorated; also recorded: markedly ameliorates ischemic brain damage; also recorded: almost completely eliminate the ischemic brain damage; also recorded: dramatic amelioration of cell death; also recorded: significant protection
ischemic cell death / brain damage in the CA1 sector of the hippocampus (10 min forebrain ischemia, NMN 500 mg/kg at 1 hour of reperfusion, 5 days of recovery, listed as NMN): Dramatic reduction of ischemia-induced brain damage
animals that did not show any injured neurons (10 min forebrain ischemia, NMN 500 mg/kg at 1 hour of reperfusion, 5 days of recovery, n=6): Five of 6
percentage of uninjured neurons in the CA1 sector vs vehicle-treated wild type mice (10 min global cerebral ischemia, NMN 1000 mg/kg IP at start of reperfusion, 6 days of recovery): significantly greater

Reference: patent US20120328526A1, “Modulation of Nad+ Activity in Neuropathophysiological Conditions and Uses Thereof” (University of Maryland, Baltimore, priority 2011, published 2012)
